O=c1cc(-c2ccccc2)c2cc(O)c(O)cc2o1
solubility (mole fraction)
Details | in acetone | in chloroform | in ethyl acetate | in methanol | in n-hexane | in water
283.2 K | 0.0022 | 3.75e-08 | 0.000553 | 0.000986 | 2.04e-08 | 7.94e-08
288.2 K | 0.00228 | 4.16e-08 | 0.000572 | 0.00102 | 4.3e-08 | 1.39e-07
293.2 K | 0.00237 | 5.93e-08 | 0.000616 | 0.0011 | 5.6e-08 | 1.92e-07
299.2 K | 0.00246 | 7.09e-08 | 0.000928 | 0.00129 | 7.86e-08 | 2.39e-07
303.2 K | 0.00266 | 1.04e-07 | 0.00101 | 0.00147 | 8.43e-08 | 2.51e-07
308.2 K | 0.00299 | 1.71e-07 | 0.00139 | 0.00179 | 1.35e-07 | 3.57e-07

COc1cc2oc(=O)cc(-c3ccccc3)c2cc1O
solubility (mole fraction)
Details | in acetone | in chloroform | in ethyl acetate | in methanol | in n-hexane | in water
283.2 K | 0.00229 | 0.00313 | 0.0014 | 0.000504 | 3.88e-06 | 1.03e-07
288.2 K | 0.00237 | 0.00361 | 0.00153 | 0.000516 | 4.03e-06 | 1.11e-07
293.2 K | 0.00256 | 0.00374 | 0.00165 | 0.000542 | 4.09e-06 | 1.12e-07
299.2 K | 0.0027 | 0.00414 | 0.00193 | 0.000646 | 4.48e-06 | 1.12e-07
303.2 K | 0.00326 | 0.00457 | 0.00204 | 0.000722 | 4.76e-06 | 1.44e-07
308.2 K | 0.0037 | 0.0059 | 0.00223 | 0.000835 | 5.36e-06 | 1.64e-07

— BigSolDB 2.1
